Patent US7964631B2, “Fused tricyclic compounds as inhibitors of tumor necrosis factor-α” (Piramal Life Sciences Limited, priority 2004, dated 2011)

Experiments:
[1] = tested on: TNF-α; test: Whole blood cell culture assay: LPS-induced TNF-α release (primary screening); type: cell-based, human; details: Homo sapiens, Whole blood cell; test compound 1 μM; diluted whole blood of healthy donors; LPS 1 μg/ml, 4.5 h; vs DMSO control
Experimental: TNF-α production by lipopolysaccharide (LPS) in whole blood was measured according to the method described by Wilson et al (J. Immunol. Methods, 139: 233-240, 1991). Briefly, blood was collected from healthy donors into potassium EDTA vacutainer tubes (Vacutest Plast/Becton Dickinson) and diluted with RPMI 1640 culture medium (Gibco BRL, Pasley, UK) containing 100 U/ml penicillin and 100 μg/ml streptomycin, (100× solution, Sigma Chemical Co. St Louis, Mo.) with no added serum. The white blood cell count was adjusted to 1×10^6 cells/ml and 100 μl/well of the diluted blood was transferred into 96-well culture plates. Following cell plating, 79 μl of culture medium and 1 μl of the test compounds (final concentration 1 μM) dissolved in DMSO (dimethylsulfoxide, Sigma, Mo., USA) was added to the cells. The final concentration of DMSO was adjusted to 0.5%. 1 μl of vehicle (0.5% DMSO) was used as control. Rolipram (100 μM) was used as a standard compound. The plates were incubated for 30 min at 37° C. in an atmosphere of 5% CO2. Finally, 20 μl (10 μg/ml) per well of LPS (Escherchia coli 0127:B8, Sigma Chemical Co., St. Louis, Mo.) was added, for a final concentration of 1 μg/ml. Plates were incubated at 37° C. for 4.5 h in an atmosphere of 5% CO2. Supernatants were harvested and assayed for TNF-α by ELISA as described by the manufacturer (R&D Systems, MN) or by cytotoxicity bioassay in L929 cells. Percent inhibition of TNF-α release in comparison to the control was calculated.

[2] = tested on: TNF-α; test: LPS-induced TNF-α production in peripheral blood mononuclear cells (secondary screening); type: cell-based; details: 4.5 h, TNF-α production in PBMC, LPS 1 μg/ml, ELISA or L929 bioassay
Experimental: (§1) TNF-α production by LPS in peripheral blood mononuclear cells (PBMC) was measured according to the method described by Henry et al (J. Bioorg. Med. Chem. Lett., 8: 3335-3340, 1998). Briefly, blood was collected from healthy donors into Potassium EDTA vacutainer tubes (Vacutest Plast/Becton Dickinson). PBMC were isolated using gradient centrifugation in Ficoll-Paque solution (Pharmacia). Isolated PBMC were suspended in RPMI 1640 culture medium (Gibco BRL, Pasley, UK) containing 10% fetal bovine serum (FBS) (Hyclone, Utah, USA), 100 U/ml penicillin (Sigma Chemical Co. St Louis, Mo.) and 100 μg/ml streptomycin (Sigma Chemical Co. St Louis, Mo.). The cell concentration was adjusted to 1×10^6 cells/ml. The viability as determined by trypan blue dye exclusion was uniformly ≧98%. The cell suspension (100 μl) was added to the wells of a 96-well culture plate. Following cell plating, 79 μl of the culture medium and 1 μl of eight different concentrations of the test compounds (final concentration 0.03, 0.1, 0.3, 1, 3, 10, 30, 100 μM) dissolved in DMSO (dimethylsulfoxide, Sigma, Mo., USA) were added to the cells. The final concentration of DMSO was adjusted to 0.5%. The appropriate DMSO concentration was used as control. Rolipram (30 μM) was used as a standard compound. The plates were incubated for 30 min at 37° C. in an atmosphere of 5% CO2. Finally, 20 μl (10 μg/ml) per well of LPS, (Escherchia coli 0127:B8, Sigma Chemical Co., St. Louis, Mo.) was added, for a final concentration of 1 μg/ml. The plates were incubated at 37° C. for 4.5 h in an atmosphere of 5% CO2. To determine the cytotoxicity of the test compounds, the cell viability was assessed using MTS (3-(4,5-dimethylthiazol-2-yl)-5-(3-carboxymethoxyphenyl)-2-(4-sulfonyl)-2H-tetrazolium) reagent (Promega) after 4.5 h of incubation. Supernatants were harvested and assayed for TNF-α by ELISA as described by the manufacturer (R&D Systems, MN, BD Biosciences Pharmingen) or by cytotoxicity bioassay in L929 cells. The 50% inhibitory concentration (IC50) values were calculated by a nonlinear regression method using GraphPad software (Prism 3.03)

[3] = tested on: peripheral blood mononuclear cells (PBMC); test: Cytotoxicity of test compounds in PBMC, cell viability by MTS reagent; type: cell-based, human
Experimental: as §1

[4] = tested on: TNF-α; test: LPS-induced TNF-α release in BALB/c mice; type: in vivo; details: Mus musculus, 100 mg/kg po, LPS 1 mg/kg i.p. 1 h after dosing, plasma TNF-α 1.5 h after LPS, read-out: % inhibition (Mean ± SE*)
Experimental: The protocol described by Fukuda T. et al (Eur. J. Pharmacol., 391: 317-320, 2000) was followed. BALB/c mice were divided into groups of five to ten each. The test compound, suspended in Tween 80-0.5% carboxy methylcellulose (CMC), with a few drops of Tween 80 as wetting agent if necessary, was administered orally (p.o.) to the mice. One hour later, LPS dissolved in sterile, pyrogen-free saline was administered i.p. at the dose of 1 mg/kg. The negative control group received saline as an i.p injection, while all other groups received LPS. Rolipram (30 mg/kg) was used as the standard drug. One and a half hours later, blood was collected in heparin. Plasma was separated by centrifugation at 13000 rpm (Heraeus Biofuge Pico Centrifuge) at room temperature, aliquoted and stored at −70° C. until analysis.
TNF-α levels in the blood samples were assayed using ELISA and % inhibition of TNF-α release compared to the control group was calculated.

IC50 [2] [µM]	melting point [°C]	SMILES	inhibition at 1 µM [1] [%]	% toxicity (10 μM), 5 h [3] [%]	inhibition in vivo at 100 mg/kg [4] [%]
8.05 ± 1.57	170 to 173	COC(=O)c1cc(C)c2c(c1)S(=O)(=O)Cc1cc(N3CCN(C(=O)OCc4ccccc4)CC3)cc(Cl)c1O2 [Example 26, 4-(4-Chloro-8-methoxycarbonyl-6-methyl-10,10-dioxo-10,11-dihydro-5-oxa-10lambda*6*-thia-dibenzo[a,d]cyclohepten-2-yl)-piperazine-1-carboxylic acid benzyl ester]	85	00	68.7 ± 3.68
0.18	277 to 280	COC(=O)c1cc(C)c2c(c1)S(=O)(=O)Cc1cc(N3CCNCC3)cc(Cl)c1O2.Cl [Example 16, 4-Chloro-6-methyl-10,10-dioxo-2-piperazin-1-yl-10,11-dihydro-5-oxa-10lambda*6*-thia-dibenzo[a,d]-cycloheptene-8-carboxylic acid methyl ester hydrochloride]	41	62	72.2 ± 3.17
